Test results reported in ChEMBL document CHEMBL1201862, “PubChem BioAssay data set” (2004).
Active and inactive are the calls of the source.

What was measured:
[1] = molecular target: T1, Oxysterols receptor LXR-beta (Homo sapiens, UniProt P55055); assay type: functional, cell-based;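 also: agonist activity at LXR measured by a cell-based luminescence readout across a dose range, run as a counterscreen for daf-12 agonists; HEK293 cells with Gal4-LXR fusion and GAL4-driven luciferase reporter; potency for activation of Gal4-LXR reporter so compounds are agonists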
T1 sequence (P55055 whole entry): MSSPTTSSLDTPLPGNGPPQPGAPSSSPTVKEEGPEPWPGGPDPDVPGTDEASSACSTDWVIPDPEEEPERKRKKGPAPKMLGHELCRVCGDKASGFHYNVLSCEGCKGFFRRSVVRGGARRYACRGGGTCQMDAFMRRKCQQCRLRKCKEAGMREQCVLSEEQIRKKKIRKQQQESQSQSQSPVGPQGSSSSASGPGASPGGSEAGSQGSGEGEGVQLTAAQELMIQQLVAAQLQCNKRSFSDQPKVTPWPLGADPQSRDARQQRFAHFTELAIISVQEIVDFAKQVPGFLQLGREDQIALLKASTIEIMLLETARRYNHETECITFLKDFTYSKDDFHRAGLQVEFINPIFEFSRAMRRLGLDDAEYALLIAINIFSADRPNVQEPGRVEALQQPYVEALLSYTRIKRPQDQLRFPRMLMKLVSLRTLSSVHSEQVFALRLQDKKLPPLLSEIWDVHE

[2] = molecular target: Aryl hydrocarbon receptor (Homo sapiens, UniProt P35869); assay: Luminescence-based cell-based high throughput dose response assay for activators of the Aryl Hydrocarbon Receptor (AHR). [Related pubchem assays: 2796 (Primary screen (AHR activators in singlicate)), 2845 (Confirmation screen (AHR activators in triplicate)), 434939 (Counterscreen (PXR activators in triplicate)), 2804 (Summary (AHR activators))]; assay type: ADME
[3] = Luminescent dose response cell-based high throughput screening assay for inhibitors of the Janus kinase 2 mutant JAK2V617F. [Related pubchem assays: 1446 (Primary screen.), 1521 (Confirmation assay.), 1486 (Counter screen.)]; assay type: functional
[4] = inhibitors of intracellular T. cruzi replication, confirmation, NIH3T3 host cells, beta-gal luminescence (AID 2044); assay type: functional, cell-based;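 also: intracellular parasites grown in NIH/3T3 mouse fibroblasts as host cells; luminescent beta-galactosidase reporter signal from transgenic T. cruzi replicating inside host cells; inhibitors lower the luminescence signal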
[5] = molecular target: T2, DNA repair and recombination protein RAD54-like (Homo sapiens, UniProt Q92698); assay: inhibitors of human RAD54 branch migration, confirmation, biochemical, fluorescence, cherry-picked samples, dose series (AID 651657); assay type: functional
T2 sequence (Q92698 whole entry): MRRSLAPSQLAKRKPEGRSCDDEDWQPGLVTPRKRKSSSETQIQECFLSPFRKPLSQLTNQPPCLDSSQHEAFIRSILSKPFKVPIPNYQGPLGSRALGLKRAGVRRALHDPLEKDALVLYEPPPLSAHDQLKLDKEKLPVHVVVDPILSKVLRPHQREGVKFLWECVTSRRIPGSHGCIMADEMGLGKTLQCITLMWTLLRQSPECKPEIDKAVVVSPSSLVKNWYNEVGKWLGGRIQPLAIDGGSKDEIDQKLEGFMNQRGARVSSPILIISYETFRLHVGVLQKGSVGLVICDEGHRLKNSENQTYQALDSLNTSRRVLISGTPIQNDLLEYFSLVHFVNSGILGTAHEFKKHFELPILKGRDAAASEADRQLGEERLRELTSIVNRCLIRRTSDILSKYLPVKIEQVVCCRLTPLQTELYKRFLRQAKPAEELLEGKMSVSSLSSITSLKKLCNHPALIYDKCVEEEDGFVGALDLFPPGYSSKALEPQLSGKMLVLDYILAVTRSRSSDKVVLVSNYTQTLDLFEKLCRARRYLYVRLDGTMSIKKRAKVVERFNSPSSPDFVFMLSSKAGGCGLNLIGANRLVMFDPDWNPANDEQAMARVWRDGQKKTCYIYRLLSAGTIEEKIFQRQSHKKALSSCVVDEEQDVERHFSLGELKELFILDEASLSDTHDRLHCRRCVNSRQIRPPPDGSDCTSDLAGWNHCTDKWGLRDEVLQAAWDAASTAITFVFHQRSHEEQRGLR

[6] = M. tuberculosis H37Rv growth inhibitors, H37Rv strain (AID 1626); assay type: functional
[7] = molecular target: 5-hydroxytryptamine receptor 1A (Homo sapiens, UniProt P08908); assay type: functional
Chain of 5-hydroxytryptamine receptor 1A (P08908 whole entry): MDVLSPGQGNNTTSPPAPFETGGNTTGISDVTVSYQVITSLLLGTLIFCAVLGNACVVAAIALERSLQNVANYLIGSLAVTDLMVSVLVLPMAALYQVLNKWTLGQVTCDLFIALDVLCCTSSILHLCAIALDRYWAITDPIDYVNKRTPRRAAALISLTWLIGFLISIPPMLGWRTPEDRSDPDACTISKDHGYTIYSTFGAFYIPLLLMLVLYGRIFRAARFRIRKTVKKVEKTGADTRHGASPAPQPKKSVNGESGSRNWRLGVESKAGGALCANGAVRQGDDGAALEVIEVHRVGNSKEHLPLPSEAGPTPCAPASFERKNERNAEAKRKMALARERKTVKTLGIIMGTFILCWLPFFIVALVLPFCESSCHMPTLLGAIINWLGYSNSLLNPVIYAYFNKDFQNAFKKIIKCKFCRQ

Chain of Aryl hydrocarbon receptor (P35869 whole entry): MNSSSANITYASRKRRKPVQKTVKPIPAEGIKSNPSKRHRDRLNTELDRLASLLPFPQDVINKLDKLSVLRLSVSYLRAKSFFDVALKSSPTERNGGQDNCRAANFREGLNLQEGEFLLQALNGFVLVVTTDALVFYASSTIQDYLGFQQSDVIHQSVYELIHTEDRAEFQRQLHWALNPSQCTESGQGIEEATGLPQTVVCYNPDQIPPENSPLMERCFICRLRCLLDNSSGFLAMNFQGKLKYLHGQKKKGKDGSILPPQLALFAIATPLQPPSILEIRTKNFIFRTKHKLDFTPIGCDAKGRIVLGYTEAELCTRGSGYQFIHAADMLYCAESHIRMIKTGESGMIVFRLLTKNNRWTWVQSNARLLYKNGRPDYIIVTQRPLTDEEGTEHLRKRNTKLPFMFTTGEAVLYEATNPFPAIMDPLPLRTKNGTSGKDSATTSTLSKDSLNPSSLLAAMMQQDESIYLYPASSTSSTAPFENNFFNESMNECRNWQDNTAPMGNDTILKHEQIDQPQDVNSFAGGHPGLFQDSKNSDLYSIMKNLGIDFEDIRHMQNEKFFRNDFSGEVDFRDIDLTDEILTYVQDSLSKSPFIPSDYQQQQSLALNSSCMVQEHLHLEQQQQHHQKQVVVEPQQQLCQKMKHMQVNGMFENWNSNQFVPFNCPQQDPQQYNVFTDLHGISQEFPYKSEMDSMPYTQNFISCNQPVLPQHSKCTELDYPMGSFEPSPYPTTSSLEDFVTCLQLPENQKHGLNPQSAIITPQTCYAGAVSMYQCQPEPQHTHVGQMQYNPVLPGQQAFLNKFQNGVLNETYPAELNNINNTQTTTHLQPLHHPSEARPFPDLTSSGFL

Compound: Cc1ccc(Nc2ncccc2C(N)=O)cc1
- EC50 [1]: > 67.4 µM (inactive)
- EC50 [2]: 1.36 µM (active)

Compound: CC1CCN(CCCNC(=O)c2cc3c(Cl)nc4ccccc4c3s2)CC1
- IC50 [3]: 0.96 µM (active)
- EC50 [4]: 2.1 µM (active)
- AC50 [5]: 11.7 µM (active)

Compound: O=C(Nc1nnc(-c2ccc3c(c2)OCCO3)o1)C1CCCCC1
- IC50 [6]: > 100 µM (active)

Compound: CN1CCN(/C(=N\O)c2nonc2N)CC1
- EC50 [7]: > 50 µM (not active)
